In patent USRE35492E, “Wound treatment employing biologically active ion channel forming peptides and proteins” (Magainin Pharmaceuticals, Inc., priority 1994, dated 1997):
No end group written: not given here.

Legend:
wound healing = details: cited from earlier work; for restoring connective tissue deposition / restoring wound contraction: antagonism of cortisone inhibition of wound healing
[1] = tested on: wound healing in rats (sponge disc implants); assay: Subcutaneous polyvinylchloride sponge disc implants in rats: collagen content and breaking strength; type: in vivo, rat
Text: (§1) Twenty-two male rats weighing between 300 g and 325 g were anesthetized, after which their backs and abdomens were shaved and washed with 70% ethanol. Three modified polyvinylchloride sponge discs 2 mm thick and 15 mm in diameter were implanted in each rat abdominally in subcutaneous pockets made under the skin. Two of the implants were cut in half and rejoined before the implantation, and the remaining disc was sandwiched between two silicone discs which forced granulation tissue infiltration to occur from the periphery of the disc. A single 15 mm×15 mm square full excision wound was made on the back and the wound edges tattooed.
(§2) The rats were then divided into four groups. A first, or control, group of four rats received sham injections daily. A second group of four rats received daily intramuscular injections of 10 mg of cortisone acetate. Cortisone is known to be an inhibitor of wound healing. A third group of seven rats received daily intramuscular injections of 0.3 mg of amide-terminated Magainin II. A fourth group of seven rats received daily intramuscular injections of 10 mg of cortisone acetate and 0.3 mg of Magainin II at separate sites. At seven days, rat weights were recorded, wound sizes measured, and the implants harvested. The staple which joined the two disc halves together was carefully removed and the breaking strength measured. Collagen content from the implant halves from each treatment group was measured by weighing the pepsin extracted native collagen. The sponge halves are homogenized in 0.5M ice-cold acetic acid containing 0.1 mg of pepsin per ml. The homogenate was stirred for 24 hours at 4° C., centrifuged, and supernatants saved. The native solubilized collagen was isolated by adding sodium chloride to 10% w/v. The salt precipitate was collected by centrifugation (10,000× g for 10 min.) and then taken up in 145 mM potassium phosphate buffer pH7.6, exhaustively dialyzed against 1 mM HCl, lyophilized and its dry weight recorded. Confirmation of collagen purity was made by SDS polyacrylamide gel electrophoresis. Pepsin digestion extracts only native collagen, needed for the formation of collagen fibers. The accumulations of collagen in the early stages of healing are responsible for gain in wound tensile strength. Collagen content from the implants taken from the group treated with cortisone acetate alone averaged 0.82 mg/sponge, as compared with 3.43 mg/sponge for the control group.
The group treated with Magainin II alone has a average wound breaking strength of 415 g.

[2] = tested on: full excision wound in rats; assay: 15 mm×15 mm full excision wound on the back of rats: wound contraction; type: in vivo, rat; details: for average wound contraction: seven days
Text: as §1, §2

[3] = substance alone, daily intramuscular injections (Magainin II 0.3 mg; cortisone acetate 10 mg), implants harvested at seven days, control group 3.43

For C[C@]12CCC(=O)C=C1CC[C@@H]1[C@@H]2C(=O)C[C@@]2(C)[C@H]1CC[C@]2(O)C(=O)CO [Cortisone], which “effect on wound healing” value (wound healing; known) is on record?
Its value is “inhibitor”.

Which “average collagen content of implants” value [1, 3] does the source give for CC(=O)OCC(=O)[C@@]1(O)CC[C@H]2[C@@H]3CCC4=CC(=O)CC[C@]4(C)[C@H]3C(=O)C[C@@]21C [cortisone acetate, reference compound] here?
Its value is 0.82 mg/sponge.

With “GIGKFLHSAKKFGKAFVGEIMNS-NH2 [Magainin II]” as the molecule, how does the “average collagen content of implants” value ([1]; 0.3 mg Magainin II plus 10 mg cortisone acetate daily intramuscular at separate sites, seven days, cortisone acetate alone 0.82) read?
Its value is 3.20 mg/sponge.

And the “average wound breaking strength” value ([1]; 0.3 mg Magainin II plus 10 mg cortisone acetate daily intramuscular at separate sites, seven days, cortisone acetate alone 195)?
The value was 320 g.

And the “average collagen content of implants” value [1, 3]?
Its value is 3.82 mg/sponge.

What about the stimulating wound healing ([2]; rats) of the same molecule?
Its stimulating wound healing is “effective”.

And the “cortisone inhibition of wound healing (collagen deposition and wound contraction)” value ([2]; rats treated with cortisone acetate and Magainin II)?
Its value is “antagonistic”.

And the average wound contraction ([2]; rats, 0.3 mg Magainin II plus 10 mg cortisone acetate daily intramuscular at separate sites, cortisone acetate alone 28)?
The average wound contraction was 53%.

What about the average wound contraction ([2]; rats, substance alone, daily intramuscular injections (Magainin II 0.3 mg; cortisone acetate 10 mg), control group 67) of the same molecule?
The average wound contraction was 65%.

What does the source list for Vitamin A?
restoring connective tissue deposition (wound healing): effective; restoring wound contraction (wound healing): ineffective

What does the source list for “growth hormone: other antagonist of cortisone inhibition, effective in restoring connective tissue deposition”?
restoring connective tissue deposition (wound healing): effective; restoring wound contraction (wound healing): ineffective
